Source: US8404790B2, “Aqueous emulsion polymerization process for producing fluoropolymers” (3M Innovative Properties Company, priority 2005, dated 2013)

Assay: Determination of bio-accumulation: urinary clearance pharmacokinetic study in rats
Settings: oral gavage
Method: The fluorinated surfactants were evaluated for urinary clearance using a pharmacokinetic study in rats. The goal was to measure the total amount of parent compound eliminated via urinary output and estimate the rate of elimination.
The study utilized male Sprague Dawley rats, 6 to 8 weeks of age, and approximately 200 to 250 g body weight at study onset. The test compounds of table 2 were administered at a dose of 73 micromoles per kg body weight in rats (N=3 animals per tested compound). All test compounds were prepared in sterile deionized water and given to rats via oral gavage. After test compounds administration, the rats were housed individually in metabolism cages for urine collection: 0 to 6 hours, 6 to 24 hours, 24 to 48 hours and 72 to 96 hours. Animals were observed throughout the study for clinical signs of toxicity. Gross necropsy was performed at the termination of each study (96 hours post-dose) with sera and liver samples being retained from each animal
The concentration of the parent compound or metabolites thereof were quantitatively measured via fluorine NMR on each urine sample for each animal at each time point based on internally added standards.

O=C(O)C(F)(F)OC(F)(F)OC(F)(F)OC(F)(F)OC(F)(F)F [Compound 1, perfluoro-3,5,7,9-tetraoxadecanoic acid (CF3—(OCF2)4—COOH)]
T½ (renal elimination half-life) (73 micromoles per kg body weight, urine, fluorine NMR, exponential least squares curve fitting): 15 h
% Recovery (96 h) (73 micromoles per kg, recovery of administered amount in urine after 96 h): 50%
